# According to patent US11225480B2, “Malic enzyme inhibitors” (SUN PHARMA ADVANCED RESEARCH COMPANY LTD, priority 2019, dated 2022):
# Counter-ions that a name gives are not always drawn.
# Legend:
# human ME3 enzyme = molecular target: T1, human ME3 enzyme (Homo sapiens, UniProt Q16798); assay: ME3 inhibition assay (diaphorase/resazurin coupled fluorescence); assay type: biochemical; details: 10 μM compound concentration; read-out: Malic Enzyme 3 % inhibition (10 μM)
# T1 sequence (Q16798 1-604): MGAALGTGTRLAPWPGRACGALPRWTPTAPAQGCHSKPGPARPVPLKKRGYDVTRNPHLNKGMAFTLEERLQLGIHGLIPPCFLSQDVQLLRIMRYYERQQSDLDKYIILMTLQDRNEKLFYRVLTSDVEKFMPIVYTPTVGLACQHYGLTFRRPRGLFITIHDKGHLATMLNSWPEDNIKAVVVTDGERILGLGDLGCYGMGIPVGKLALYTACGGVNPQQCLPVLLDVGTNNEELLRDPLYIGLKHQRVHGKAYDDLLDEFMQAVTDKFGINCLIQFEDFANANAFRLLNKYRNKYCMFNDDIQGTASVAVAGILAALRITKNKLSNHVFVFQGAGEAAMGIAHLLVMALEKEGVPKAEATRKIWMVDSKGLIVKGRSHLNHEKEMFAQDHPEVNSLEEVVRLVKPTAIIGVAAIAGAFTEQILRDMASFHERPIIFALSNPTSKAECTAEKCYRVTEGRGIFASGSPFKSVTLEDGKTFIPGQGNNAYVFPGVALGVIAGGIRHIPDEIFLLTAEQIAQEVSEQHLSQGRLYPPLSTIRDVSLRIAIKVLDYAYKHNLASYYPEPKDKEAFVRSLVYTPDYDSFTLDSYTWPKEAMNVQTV
# Procedure: ME3 catalyzes the oxidative decarboxylation of malate to pyruvate with conversion of the co-factor β-NADP+ to NADPH. In the fluorescence assay, a coupled reaction is set up wherein an enzyme, Diaphorase, utilizes NADPH generated by ME3, to convert the dye resazurin to a fluorescent molecule resorufin.
# The enzyme activity inhibition assay is set up in a 200 μL final reaction volume in a 96-well plate. As per the experimental design, 2 μL of the test compounds at 100× the desired concentration (10 μM) in DMSO were added to the respective wells with 178 μL of assay buffer (50 mM Tris-HCl pH 7.5, 10 mM MnCl2, 3 mM L-malate, 50 μM Resazurin and 0.025 mg/ml Diapharose). The 96-well plate was incubated on a plate shaker at room temperature for 15 minutes protected from light. The well contents were gently mixed by adding 10 μL of 20 nM human ME3 enzyme to the wells and the plate was incubated on a shaker at room temperature for 5 minutes protected from light. Suitable enzyme only and no enzyme controls were included in the experiment. The enzyme reaction was started by adding 10 μL of 1 mM D-NADP+. The reaction was gently mixed and the plate was initially left on a shaker at room temperature for ˜7 minutes protected from light. Later, the plate was incubated without shaking at room temperature for 3 hours. At the end of 3 hours, the fluorescence of the wells was measured at excitation 540 nm and emission 600 nm.
# human ME1 enzyme = molecular target: T2, human ME1 enzyme (Homo sapiens, UniProt P48163); assay: ME1 inhibition assay (diaphorase/resazurin coupled fluorescence); assay type: biochemical; details: 10 μM compound concentration; read-out: Malic Enzyme 1 % inhibition (10 μM)
# T2 sequence (P48163 1-572): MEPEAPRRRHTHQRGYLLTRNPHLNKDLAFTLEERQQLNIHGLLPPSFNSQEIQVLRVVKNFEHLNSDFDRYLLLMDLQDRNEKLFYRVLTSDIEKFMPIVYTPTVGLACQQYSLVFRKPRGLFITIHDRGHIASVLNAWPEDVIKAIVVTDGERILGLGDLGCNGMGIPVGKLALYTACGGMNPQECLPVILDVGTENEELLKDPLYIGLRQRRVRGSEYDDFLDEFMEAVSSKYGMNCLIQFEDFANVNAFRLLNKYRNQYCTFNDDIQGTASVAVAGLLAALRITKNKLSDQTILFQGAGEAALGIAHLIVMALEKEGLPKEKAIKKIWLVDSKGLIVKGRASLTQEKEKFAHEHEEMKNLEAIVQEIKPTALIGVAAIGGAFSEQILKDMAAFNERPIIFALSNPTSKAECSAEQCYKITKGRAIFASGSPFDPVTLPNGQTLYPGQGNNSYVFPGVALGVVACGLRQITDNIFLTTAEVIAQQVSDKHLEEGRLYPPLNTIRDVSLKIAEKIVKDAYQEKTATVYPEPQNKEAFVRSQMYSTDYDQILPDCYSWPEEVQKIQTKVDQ
# Procedure: ME1 catalyzes the oxidative decarboxylation of malate to pyruvate with conversion of the co-factor β-NADP+ to β-NADPH. In the fluorescence assay, a coupled reaction is set up where in an enzyme, Diaphorase, utilizes NADPH generated by ME1, to convert the dye resazurin to a fluorescent molecule resorufin. Resorufin has a characteristic fluorescence with excitation/emission at 540/600 nm (SLAS Discov., 2017 April 1:2472555217706649).
# The enzyme activity inhibition assay is set up in a 200 μL final reaction volume in a 96-well plate. As per the experimental design, 2 μL of the compounds at 100× the desired concentration (10 μM) in DMSO were added to the respective wells with 178 μL of assay buffer (50 mM Tris-HCl pH 7.5, 10 mM MnCl2, 2 mM L-malate, 10 μM Resazurin and 0.01 mg/ml Diapharose). The 96-well plate was incubated on a plate shaker at room temperature for 15 minutes protected from light. The well contents were gently mixed by adding 10 μL of 20 nM human ME1 enzyme to the wells and the plate was incubated on a shaker at room temperature for 5 minutes protected from light. Suitable ‘enzyme only’ and ‘no enzyme’ controls were included in the experiment. The enzymatic reaction was started by adding 10 μL of 0.3 mM D-NADP+. The reaction was gently mixed and the plate was initially left on a shaker at room temperature for −7 minutes protected from light. Later, the plate was incubated without shaking at room temperature for 2 hours. At the end of 2 hours, the fluorescence of the wells was measured at excitation 540 nm and emission 600 nm. The % enzyme activity of the compounds is obtained by normalizing the data with enzyme only (100%) and no enzyme controls (0%) using GraphPad Prism software 7.04.
Compound,inhibition at 10 µM (human ME3 enzyme) [%],inhibition at 10 µM (human ME1 enzyme) [%]
"COc1cc(CC(=O)N2CCN(c3ccc(O)cc3)CC2)cc(OC)c1OC [I.3, 1-[4-(4-Hydroxy-phenyl)-piperazin-1-yl]-2-(3,4,5-trimethoxy-phenyl)-ethanone]",> 90,> 90
"O=C(Cc1ccc(O)cc1)N1CCN(c2ccc(O)cc2)CC1 [I.4, 2-(4-Hydroxy-phenyl)-1-[4-(4-hydroxy-phenyl)-piperazin-1-yl]-ethanone]",> 90,> 90
"O=C(Cc1ccc(C(F)(F)F)cc1)N1CCN(c2ccc(O)cc2)CC1 [I.28, 1-[4-(4-Hydroxy-phenyl)-piperazin-1-yl]-2-(4-trifluoro-methyl-phenyl)-ethanone]",> 90,> 90
"O=C(Cc1ccc(F)cc1F)N1CCN(c2ccc(O)cn2)CC1 [I.91, 2-(2,4-Difluoro-phenyl)-1-[4-(5-hydroxy-pyridine-2-yl)-piperazin-1-yl]-ethanone]",> 90,–
"O=C(CSc1ccc([N+](=O)[O-])cn1)N1CCN(c2ccc(O)cn2)CC1 [I.97, 1-[4-(5-hydroxy-pyridin-2-yl)-piperazin-1-yl]-2-(5-nitro-pyridin-2-ylsulfanyl)-ethanone]",> 90,–
"O=C(CCC12CC3CC(CC(C3)C1)C2)N1CCN(c2ccc(O)cn2)CC1 [I.98, 3-(1-Adamantyl)-1-[4-(5-hydroxy-2-pyridyl)-piperazin-1-yl]propan-1-one]",> 90,–
"O=C(C(c1ccccc1)C1CCCCC1)N1CCN(c2ccc(O)cn2)CC1 (stereo not shown) [I.99, 2-Cyclo-hexyl-1-[4-(5-hydroxy-2-pyridyl)-piperazin-1-yl]-2-phenyl-ethanone]",> 90,–
"O=C(CCc1ccc(O)cc1)N1CCN(c2ccc(O)cn2)CC1 [I.100, 3-(4-Hydroxy-phenyl)-1-[4-(5-hydroxy-pyridin-2-yl)-piperazin-1-yl]-propan-1-one]",> 90,–
"COc1ccc(CCC(=O)N2CCN(c3ccc(O)cn3)CC2)cc1 [I.101, 3-(4-Methoxy-phenyl)-1-[4-(5-hydroxy-pyridin-2-yl)-piperazin-1-yl]-propan-1-one hydrochloride]",> 90,–
"O=C(CCc1ccccc1Br)N1CCN(c2ccc(O)cn2)CC1 [I.102, 3-(2-Bromo-phenyl)-1-[4-(5-hydroxy-pyridin-2-yl)-piperazin-1-yl]-propan-1-one]",> 90,–
"O=C(CCc1ccc(Br)cc1)N1CCN(c2ccc(O)cn2)CC1 [I.103, 3-(4-Bromo-phenyl)-1-[4-(5-hydroxy-pyridin-2-yl)-piperazin-1-yl]-propan-1-one]",> 90,–
"COC(=O)C1C2CCC(O2)C1C(=O)N1CCN(c2ccc(O)cn2)CC1 (stereo not shown) [I.104, 3-[4-(5-Hydroxy-pyridin-2-yl)-piperazine-1-carbonyl]-7-oxa-bicyclo-[2.2.1]heptane-2-carboxylic acid methyl ester]",70 to 89,–
"O=C(O)C1C2CCC(O2)C1C(=O)N1CCN(c2ccc(O)cn2)CC1 (stereo not shown) [I.105, 3-[4-(5-Hydroxy-pyridin-2-yl)-piperazine-1-carbonyl]-7-oxa-bicyclo-[2.2.1]heptane-2-carboxylic acid]",> 90,–
"O=C(C(=O)N1CCN(c2ccc(O)cn2)CC1)c1c[nH]c2ccccc12 [I.106, 1-[4-(5-Hydroxy-pyridin-2-yl)-piperazin-1-yl]-2-(1H-indol-3-yl)-ethane-1,2-dione]",> 90,–
"CN(C)c1ccc(CCC(=O)N2CCN(c3ccc(O)cn3)CC2)cc1 [I.108, 3-(4-Dimethyl-aminophenyl)-[4-(5-hydroxy-pyridin-2-yl)-piperazin-1-yl]-propan-1-one]",> 90,–
"COc1ccccc1CCC(=O)N1CCN(c2ccc(O)cn2)CC1 [I.109, 1-[4-(5-Hydroxy-pyridin-2-yl)-piperazin-1-yl]-3-(2-methoxy-phenyl)-propan-1-one]",> 90,–
"Cc1ccc(CCC(=O)N2CCN(c3ccc(O)cn3)CC2)cc1 [I.110, 1-[4-(5-Hydroxy-pyridin-2-yl)-piperazin-1-yl]-3-p-tolyl-propan-1-one]",> 90,–
"O=C(O)c1ccccc1C(=O)N1CCN(c2ccc(O)cn2)CC1 [I.111, 2-[4-(5-Hydroxy-pyridin-2-yl)-piperazine-1-carbonyl]-benzoic acid]",> 90,–
"O=C(CCC(c1ccccc1)c1ccccc1)N1CCN(c2ccc(O)cn2)CC1 [I.112, 1-[4-(5-Hydroxy-2-pyridyl)-piperazin-1-yl]-4,4-diphenyl-butan-1-one]",> 90,–
"O=C(c1cccc(-c2cccc3[nH]ccc23)c1)N1CCN(c2ccc(O)cn2)CC1 [I.113, [4-(5-hydroxypyridin-2-yl)-piperazin-1-yl]-[3-(1H-indol-4-yl)phenyl]methanone]",> 90,–
"COCCOc1ccc(CCC(=O)N2CCN(c3ccc(O)cn3)CC2)cc1 [I.114, 1-[4-(5-Hydroxy-pyridin-2-yl)-piperazin-1-yl]-3-[4-(2-methoxy-ethoxy)-phenyl]-propan-1-one dihydro-chloride]",> 90,–
"O=C(C(c1ccccc1)N1CCOCC1)N1CCN(c2ccc(O)cn2)CC1 (stereo not shown) [I.117, 1-[4-(5-hydroxy-2-pyridyl)piperazin-1-yl]-2-morpholino-2-phenyl-ethanone]",> 90,–
"O=C(C1CCCCC1)N1CCN(c2ccc(O)cn2)CC1 [I.118, Cyclohexyl-[4-(5-hydroxy-2-pyridyl)-piperazin-1-yl]methanone]",> 90,–
"O=C(C1CC1)N1CCN(c2ccc(O)cn2)CC1 [I.119, Cyclopropyl-[4-(5-hydroxy-2-pyridyl)-piperazin-1-yl]methanone]",> 90,–
"O=C(/C=C/C1CCCCC1)N1CCN(c2ccc(O)cn2)CC1 [I.120, (E)-3-Cyclo-hexyl-1-[4-(5-hydroxy-2-pyridyl)-piperazin-1-yl]prop-2-en-1-one]",> 90,–
